According to patent US20220233444A1, “THIOESTER CATIONIC LIPIDS” (Translate Bio, Inc., priority 2019, published 2022):

System: BALB/c mice
Assay: In vivo expression of hEPO after IM injection of LNP formulations in BALB/c mice
Conditions: lipid nanoparticles with hEPO mRNA, Cationic Lipid, DMG-PEG2000, Cholesterol and DOPE; single intramuscular injection into gastrocnemius muscle, 0.1 ug; male BALB/c mice; 6 hours post-dose; ELISA; FIG. 1
Protocol: FIG. 1 depicts in vivo protein production resulting from the delivery of mRNA using lipid nanoparticles comprising Compound 30 as described herein.
Lipid nanoparticle formulations comprising human erythropoietin (hEPO) mRNA, Cationic Lipid, DMG-PEG2000, Cholesterol and DOPE were administered intramuscularly to study mRNA delivery and resultant hEPO expression. Male BALB/c mice at 6-8 weeks old are given a single injection of the LNP formulations into the gastrocnemius muscle at a dosage level of 0.1 ug. Blood samples were collected at 6 hours post-dose, hEPO protein expression levels were measured in the sera samples by ELISA and presented in FIG. 1.

## CCCCCCCCCCC(O)CN(CCCC(=O)SCCCCSC(=O)CCCN(CC(O)CCCCCCCCCC)CC(O)CCCCCCCCCC)CC(O)CCCCCCCCCC (stereo not shown) [Compound 30]
  hEPO protein expression levels in sera (in vivo protein production): high levels of in vivo protein production
